The values below come from patent publication US9115143B2, “Substituted indole derivatives as gamma secretase modulators” (Janssen Pharmaceuticals, Inc., priority 2011, dated 2015).

Molecules are shown by their SMILES.

Broadly, the IC50 is the concentration needed to halve the response being measured. Low values mean inhibition by little substance, high ones a need for much substance. The melting point is the temperature of the solid-liquid transition.

In one series the test system is Aβtotal. Description: Screening for γ-secretase-modulating activity: Aβtotal in supernatant of SKNBE2 cells carrying hAPP 695 wild type (Alphalisa). The series is classed as cell-based, human. The settings on record: overnight incubation, Alphalisa on supernatant. The method, boiled down: (§1)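 SKNBE2 human neuroblastoma cells expressing wild-type hAPP 695 (10^4/well) were incubated overnight at 37 °C, 5% CO2 with compound at several concentrations. Supernatant Aβ42 and Aβtotal measured by AlphaLISA sandwich immunoassays; IC50 from 4-parameter fit of percent of untreated control versus log concentration.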
(In general: Bead proximity is the source of the signal in Alpha formats.)

Another series relates to Aβ38. Kind of series: In vivo efficacy B-2a: brain soluble Aβ38 in non-transgenic rodents, ELISA. Set-up: species or system mouse. The settings on record: dose 30 mg/kg oral dosing, brain soluble fraction, untreated animals (Ctrl) set at 100; for Aβ38 (% vs Ctrl)_Mean: 30 mg/kg; for response vs control in vivo at 30 mg/kg: Mus musculus, po, read-out: Aβ38 (% vs Ctrl)_Mean. The text has this:
Aβ38 increasing agents can be administered in any standard form using any standard method. For example, but not limited to, Aβ38 increasing agents can be in the form of liquid, tablets or capsules that are taken orally or by injection.
To determine whether acute administration of an Aβ38 increasing agents would increase Aβ38 levels in vivo, non-transgenic rodents, e.g. mice or rats were used. Animals treated with the Aβ38 increasing agents were examined and compared to those untreated or treated with vehicle and brain levels of soluble Aβ38 and total Aβ were quantitated by standard techniques, for example, using ELISA. Treatment periods varied from hours (h) to days and were adjusted based on the results of the Aβ38 increase once a time course of onset of effect could be established.
A typical protocol for measuring Aβ38 increase in vivo is shown but it is only one of many variations that could be used to optimize the levels of detectable Aβ. For example, Aβ38 increasing agents were formulated in 20% of Captisol® (a sulfobutyl ether of β-cyclodextrin) in water or 20% hydroxypropyl β cyclodextrin. The Aβ38 increasing agents were administered as a single oral dose or by any acceptable route of administration to overnight fasted animals. After 4 h, the animals were sacrificed and Aβ38 levels were analysed.
Blood was collected by decapitation and exsanguinations in EDTA-treated collection tubes. Blood was centrifuged at 1900 g for 10 minutes (min) at 4° C. and the plasma recovered and flash frozen for later analysis. The brain was removed from the cranium and hindbrain. The cerebellum was removed and the left and right hemisphere were separated. The left hemisphere was stored at −18° C. for quantitative analysis of test compound levels. The right hemisphere was rinsed with phosphate-buffered saline (PBS) buffer and immediately frozen on dry ice and stored at −80° C. until homogenization for biochemical assays.
Mouse brains from non-transgenic animals were resuspended in 8 volumes of 0.4% DEA (diethylamine)/50 mM NaCl containing protease inhibitors (Roche-11873580001 or 04693159001) per gram of tissue, e.g. for 0.158 g brain, add 1.264 mL of 0.4% DEA. All samples were homogenized in the FastPrep-24 system (MP Biomedicals) using lysing matrix D (MPBio #6913-100) at 6 m/s for 20 seconds. Homogenates were centrifuged at 20800×g for 5 min and supernatants collected. Supernatants were centrifuged at 221.300×g for 50 min. The resulting high speed supernatants were then transferred to fresh eppendorf tubes. Nine parts of supernatant were neutralized with 1 part 0.5 M Tris-HCl pH 6.8 and used to quantify Aβtotal and Aβ38.
To quantify the amount of Aβtotal and Aβ38 in the soluble fraction of the brain homogenates, Enzyme-Linked-Immunosorbent-Assays were used. Briefly, the standards (a dilution of synthetic Aβ1-40 and Aβ1-38, ANASPEC) were prepared in 1.5 mL Eppendorf tube in Ultraculture, with final concentrations ranging from 10000 to 0.3 pg/mL. The samples and standards were co-incubated with HRPO-labelled N-terminal antibody for Aβ38 detection and with the biotinylated mid-domain antibody 4G8 for Aβtotal detection. 50 μl of conjugate/sample or conjugate/standards mixtures were then added to the antibody-coated plate (the capture antibodies selectively recognize the C-terminal end of Aβ38, antibody J&JPRD/Aβ38/5, for Aβ38 detection and the N-terminus of Aβ, antibody JRF/rAβ/2, for Aβtotal detection). The plate was allowed to incubate overnight at 4° C. in order to allow formation of the antibody-amyloid complex. Following this incubation and subsequent wash steps the ELISA for Aβ38 quantification was finished by addition of Quanta Blu fluorogenic peroxidase substrate according to the manufacturer's instructions (Pierce Corp., Rockford, Ill.). A reading was performed after 10 to 15 min (excitation 320 nm/emission 420 nm). […]
(An ELISA detects its analyte on a solid surface through an enzyme-linked reagent.)

A further series has as its system Aβ42. Kind of series: Screening for γ-secretase-modulating activity: Aβ42 in supernatant of SKNBE2 cells carrying hAPP 695 wild type (Alphalisa). The class given is cell-based, human. The settings on record: overnight incubation, Alphalisa on supernatant. The gist of the method: as §1
Setting [1] is: Homo sapiens, SKNBE2, SKNBE2 human neuroblastoma cells carrying hAPP 695 wild type.
[2] abbreviates: SKNBE2 human neuroblastoma cells carrying hAPP 695 wild type.

The compound `COc1c(C#N)ccc2[nH]c(-c3cn4c(n3)C(c3ccc(F)cc3C)OCC4)cc12` (stereo not drawn) [Compound 46, 2-[8-(4-fluoro-2-methylphenyl)-5,6-dihydro-8H-imidazo[2,1-c][1,4]oxazin-2-yl]-4-methoxy-1H-indole-5-carbonitrile] yielded a melting point of 236.2 °C. The same compound registered an IC50 with Aβtotal (setting [1]) greater than 10000 nM. Besides, in the series on Aβ38, the “Aβ38 (% vs Ctrl)_Mean” value is recorded as 109 % vs Ctrl. The half-inhibitory concentration (IC50) with Aβ42 (setting [2]) is 54 nM.
Compound `COc1c(C#N)ccc2[nH]c(-c3nc4n(n3)CCOC4c3ccc(F)cc3C)cc12` (stereo not drawn) [Compound 114, 2-[8-(4-fluoro-2-methylphenyl)-5,6-dihydro-8H-[1,2,4]triazolo[5,1-c][1,4]oxazin-2-yl]-4-methoxy-1H-indole-5-carbonitrile] yielded a melting point of 257.5 °C. The half-inhibitory concentration (IC50) in the series with Aβtotal (setting [2]) was greater than 10000 nM. In addition, the “Aβ38 (% vs Ctrl)_Mean” value in the series on Aβ38 was found to be 88 % vs Ctrl. In the series on Aβ42 (setting [2]), this compound yielded an IC50 of 32 nM.
Turning to `N#Cc1ccc2[nH]c(-c3nc4n(n3)CCCC4c3cccc(OC(F)(F)F)c3)cc2c1` (stereo not drawn) [Compound 20, 2-[5,6,7,8-tetrahydro-8-[3-(trifluoromethoxy)phenyl][1,2,4]triazolo[1,5-a]pyridin-2-yl]-1H-indole-5-carbonitrile], the melting point turned out to be 225.1 °C. This compound also returned an IC50 in the series with Aβtotal (setting [1]) greater than 10000 nM. Moreover, the response vs control in vivo at 30 mg/kg in the series with Aβ38 is 122%. Moreover, the midpoint of inhibition in the series with Aβ42 (setting [1]), the IC50, lay at 275 nM.
`Cc1cn(-c2ccc3[nH]c(-c4nc5n(n4)CCCC5c4ccccc4C)cc3n2)cn1.Cl` (stereo not drawn) [Compound 5, 5,6,7,8-tetrahydro-2-[5-(4-methyl-1H-imidazol-1-yl)-1H-pyrrolo[3,2-b]pyridin-2-yl]-8-(2-methylphenyl)-[1,2,4]triazolo[1,5-a]pyridine]: the melting point came to 189.4 °C. The half-inhibitory concentration (IC50) in the series on Aβtotal (setting [1]) is greater than 10000 nM. Also, in the series on Aβ38, the response vs control in vivo at 30 mg/kg amounted to 123%. For the same compound, the midpoint of inhibition in the series on Aβ42 (setting [1]), the IC50, lay at 105 nM.
In turn, `Cc1ccccc1C1CCCn2nc(-c3cc4cc(C#N)ccc4[nH]3)nc21` (stereo not drawn) [Compound 12, 2-[5,6,7,8-tetrahydro-8-(2-methylphenyl)[1,2,4]triazolo[1,5-a]pyridin-2-yl]-1H-indole-5-carbonitrile] had a melting point of 142.1 °C. The compound also gave an IC50 with Aβtotal (setting [1]) greater than 10000 nM. Besides, the “Aβ38 (% vs Ctrl)_Mean” value in the series on Aβ38 stood at 96 % vs Ctrl. This compound also registered a concentration for half-maximal inhibition (IC50) in the series on Aβ42 (setting [2]) of 126 nM.
Take `COc1c(C#N)ccc2[nH]c(-c3cn4c(n3)C(c3ccc(F)cc3C)OCC4)cc12` (stereo not drawn) [Compound 47, 2-[8-(4-fluoro-2-methylphenyl)-5,6-dihydro-8H-imidazo[2,1-c][1,4]oxazin-2-yl]-4-methoxy-1H-indole-5-carbonitrile]: the melting point was determined as 242.6 °C. In the series on Aβtotal (setting [2]), the half-inhibitory concentration (IC50) was greater than 10000 nM. In addition, the “Aβ38 (% vs Ctrl)_Mean” value in the series on Aβ38 is recorded as 87 % vs Ctrl. This compound also yielded an IC50 in the series on Aβ42 (setting [2]) of 23 nM.
As for `Cc1cn(-c2ccc3[nH]c(-c4nc5n(n4)CCCC5c4ccc(F)cc4C)cc3c2)cn1` (stereo not drawn) [Compound 73, 8-(4-fluoro-2-methylphenyl)-5,6,7,8-tetrahydro-2-[5-(4-methyl-1H-imidazol-1-yl)-1H-indol-2-yl]-[1,2,4]triazolo[1,5-a]pyridine], the 50% inhibitory concentration (IC50) was greater than 10000 nM in the series with Aβtotal (setting [1]) and 43 nM in the series with Aβ42 (setting [1]). In addition, the response vs control in vivo at 30 mg/kg in the series with Aβ38 is 120%.
In the same order, the values of `Cc1cn(-c2ccc3[nH]c(-c4nc5n(n4)CCOC5c4ccccc4C(F)(F)F)cc3c2)cn1` (stereo not drawn) [Compound 37, 5,6-dihydro-2-[5-(4-methyl-1H-imidazol-1-yl)-1H-indol-2-yl]-8-[2-(trifluoromethyl)phenyl]-8H-[1,2,4]triazolo[5,1-c][1,4]oxazine] are 832 nM, 48 nM and 118%.
`Cc1cc(F)ccc1C1CCCn2cc(-c3cc4cc(C#N)ccc4[nH]3)nc21` (stereo not drawn) [Compound 4, 2-[8-(4-fluoro-2-methylphenyl)-5,6,7,8-tetrahydroimidazo[1,2-a]pyridin-2-yl]-1H-indole-5-carbonitrile]: the IC50 in the series on Aβtotal (setting [1]) is greater than 10000 nM; with Aβ42 (setting [2]) it was 87 nM. Besides, the “Aβ38 (% vs Ctrl)_Mean” value in the series on Aβ38 turned out to be 141 % vs Ctrl.
As for `Cc1cn(-c2ccc3[nH]c(-c4nc5n(n4)CCCC5c4ccc(F)cc4C)nc3c2)cn1` (stereo not drawn) [Compound 176, 8-(4-fluoro-2-methylphenyl)-5,6,7,8-tetrahydro-2-[5-(4-methyl-1H-imidazol-1-yl)-1H-benzimidazol-2-yl]-[1,2,4]triazolo[1,5-a]pyridine], the half-inhibitory concentration (IC50) in the series with Aβtotal (setting [2]) is greater than 10000 nM; in the series on Aβ42 (setting [2]), 89 nM. Further, the response vs control in vivo at 30 mg/kg in the series on Aβ38 was 93%.
As to `Cc1cc(F)ccc1C1OCCn2cc(-c3cc4cc(-c5cnn(C)c5)ccc4[nH]3)nc21` (stereo not drawn) [Compound 99, 8-(4-fluoro-2-methylphenyl)-5,6-dihydro-2-[5-(1-methyl-1H-pyrazol-4-yl)-1H-indol-2-yl]-8H-imidazo[2,1-c][1,4]oxazine], the IC50 was greater than 10000 nM in the series with Aβtotal (setting [1]) and 78 nM in the series with Aβ42 (setting [1]). For the same compound, in the series on Aβ38, the response vs control in vivo at 30 mg/kg worked out at 96%.
For `Cc1cn(-c2ccc3[nH]c(-c4nc5n(n4)CCCC5c4ccccc4C(F)(F)F)cc3c2)cn1` (stereo not drawn) [Compound 8, 5,6,7,8-tetrahydro-2-[5-(4-methyl-1H-imidazol-1-yl)-1H-indol-2-yl]-8-[2-(trifluoromethyl)phenyl]-[1,2,4]triazolo[1,5-a]pyridine] the same measures were greater than 10000 nM, 46 nM and 181%.
With `Cc1cc(F)ccc1C1CCCn2nc(-c3cc4nc(-c5cnn(C)c5)ccc4[nH]3)nc21` (stereo not drawn) [Compound 69, 8-(4-fluoro-2-methylphenyl)-5,6,7,8-tetrahydro-2-[5-(1-methyl-1H-pyrazol-4-yl)-1H-pyrrolo[3,2-b]pyridin-2-yl]-[1,2,4]triazolo[1,5-a]pyridine], the concentration for half-maximal inhibition (IC50) is greater than 10000 nM with Aβtotal (setting [2]) and 117 nM in the series with Aβ42 (setting [2]). Moreover, the response vs control in vivo at 30 mg/kg with Aβ38 was 106%.
Regarding `Cc1cn(-c2cc3cc(-c4nc5n(n4)CCCC5c4ccccc4C)[nH]c3cn2)cn1` (stereo not drawn) [Compound 30, 5,6,7,8-tetrahydro-2-[5-(4-methyl-1H-imidazol-1-yl)-1H-pyrrolo[2,3-c]pyridin-2-yl]-8-(2-methylphenyl)-[1,2,4]triazolo[1,5-a]pyridine], the IC50 in the series with Aβtotal (setting [1]) is greater than 10000 nM; in the series with Aβ42 (setting [1]) it was 52 nM. Besides, the response vs control in vivo at 30 mg/kg in the series on Aβ38 was found to be 118%.
Take `Cc1cc(F)ccc1C1CCCn2cc(-c3cc4cc(C#N)ccc4[nH]3)nc21` (stereo not drawn) [Compound 63, 2-[8-(4-fluoro-2-methylphenyl)-5,6,7,8-tetrahydroimidazo[1,2-a]pyridin-2-yl]-1H-indole-5-carbonitrile]: the half-inhibitory concentration (IC50) with Aβtotal (setting [2]) was greater than 10000 nM; with Aβ42 (setting [2]) it was 4470 nM. Besides, the “Aβ38 (% vs Ctrl)_Mean” value in the series with Aβ38 came out at 98 % vs Ctrl.
In the case of `COc1c(C#N)ccc2[nH]c(-c3nc4n(n3)CCOC4c3ccccc3C(F)(F)F)cc12` (stereo not drawn) [Compound 55, 2-[5,6-dihydro-8-[2-(trifluoromethyl)phenyl]-8H-[1,2,4]triazolo[5,1-c][1,4]oxazin-2-yl]-4-methoxy-1H-indole-5-carbonitrile], the half-inhibitory concentration (IC50) with Aβtotal (setting [1]) is greater than 10000 nM; with Aβ42 (setting [1]), 72 nM. In addition, the response vs control in vivo at 30 mg/kg in the series on Aβ38 was 130%.
